{"source": "patent US20100298242A1", "about": "“MASKING THE TASTE OF COMPOSITONS CONTAINING SALT” (priority 2006, published 2010)", "key": {"[1]": {"conditions": "cited from earlier work"}, "[2]": {"assay": "Organoleptic check of ORS solutions with a single sweetener", "assay_type": "in vivo", "conditions": "200 mg Na-cyclamate or quantity calculated to equal sweetening power per dose", "procedure": "Permitted sweeteners were used for a taste test on ORS solutions. Different concentrations of 10 to 200 mg of the sweetener Na-cyclamate were weighed into the solids mixture. Na-cyclamate is a sodium salt like NaCl. In comparison to other sweeteners, it has a low sweetening power. It was to be found out whether the salty taste of the ORS solution can be masked as a function of concentration by Na-cyclamate. The powder mixtures were weighed out according to the composition of the WHO and dissolved in water according to the instruction.\nAfter organoleptic checking, no salty taste was perceived for the ORS solution with a concentration of 200 mg Na-cyclamate.\nThe sweeteners were calculated to the standard concentration of the Na-cyclamate. The different sweetening power values of the sweeteners were used as the reference variable.\nThe calculated quantities of sweeteners were added to the ORS powder mixtures and dissolved in water. The following organoleptic test took place."}, "[3]": {"assay": "Acceptable daily intake (ADI) value and highest daily doses calculated from it", "conditions": "child weighing 10 kg; for Highest dose/sachet: four sachets a day", "source_text": "An E number is provided for each sweetener and an ADI value is defined. The “acceptable daily intake” (ADI) value gives the quantity in milligrams per kilogram of body weight (KG) of the substance, which can be taken daily for life without incurring damage.\nADI values (acceptable daily intake) were established for the sweeteners. Using the ADI values, maximum concentrations can be calculated, which may be applied daily by a substance without incurring damage for life. The sweetener addition to the ORS solutions is limited by the ADI values. According to the specialist information for preparation C, the therapeutic maximum dose is four sachets a day for babies and small children. […] The calculation relates to the bodyweight of a child weighing 10 kg."}, "[4]": {"conditions": "cited from earlier work; for ADI value/kg KG: acceptable daily intake per kg body weight"}, "[5]": {"conditions": "in vivo; cited from earlier work"}, "[6]": {"assay": "Organoleptic test of ORS solutions with sugars and sugar alcohols", "assay_type": "in vivo", "excerpt": "Further sweetening agents were included in a taste testing. An addition of sugars and sugar alcohols has a substantially stronger effect on the total osmolarity of an ORS solution than the addition of sweeteners. […] In addition to the total osmolarity of the effective constituents of the ORS solutions, the values are outside the recommended limits of the WHO recommendations. The quantities to be added are not to be recommended either in relation to the promotion of caries and a laxative effective. […] A taste test was nevertheless carried out with the sugars and sugar alcohols. Complete dissolution took place in water and an organoleptic test took place with the calculated quantities. […] The concentrations of substances were reduced to such an extent that the maximum limit of the osmolarity of 311 mosmol/l was adhered to. […] The addition of sweeteners is to be preferred in each case with regard to side-effects, osmolarity and a complete masking of the salty taste."}, "[7]": {"conditions": "neotam as aspartame derivative; cited from earlier work"}, "bladder carcinomas": {"system": "bladder carcinomas", "conditions": "cited from earlier work"}, "[8]": {"conditions": "ranking of the three sweeteners", "quoted_text": "In order to use as few sweeteners as possible, two sweeteners from Table 3 are combined with one another in each case. The result is six combinations. […] As a result, the concentration with 40 mg for aspartame was only selected to be half as high as the maximally permissible daily highest limit. In order to ensure a comparability with the other sweeteners, the concentration of aspartame was also retained for the remaining combinations.\nProceeding from the tested concentration ratios of the combinations it was investigated whether the same masking of taste can be achieved by a reduction in dose of the sweeteners."}, "[9]": {"conditions": "relative to saccharose = 1, sweeteners permitted in the European Union"}, "[10]": {"conditions": "sugars and sugar alcohols table"}, "[11]": {"conditions": "calculated quantities (equal sweetness to 200 mg Na-cyclamate)"}, "[12]": {"conditions": "concentrations reduced so that maximum osmolarity of 311 mosmol/l is adhered to"}}, "note": "Entries after “also recorded” stand apart in the source; their conditions may differ. Where two headings read alike, the source gives them in different places. Where a SMILES comes first, the peptide text is derived from it."}
{"compound": "CC1=CC(=O)NS(=O)(=O)O1", "note": "[Acesulfame potassium]", "values": [{"measurement": "Sweetening power", "setting": "[1]; [9]", "value": 200}, {"measurement": "masking of the salty taste of the ORS solution", "setting": "[2]; listed as acesulfame-K", "value": "salty taste was perceived to a lesser extent; also recorded: masking was achieved"}, {"measurement": "Highest daily dose/10 kg BW", "setting": "[3]", "value": 150, "unit": "mg"}, {"measurement": "Highest dose/sachet", "setting": "[3]", "value": 37.5, "unit": "mg"}, {"measurement": "ADI value/kg KG", "setting": "[4]", "value": 15, "unit": "mg mg/kg KG"}]}
{"compound": "CC1=CC(=O)NS(=O)(=O)O1", "note": "[Acesulfame]", "values": [{"measurement": "fate in the human organism (splitting, metabolism, elimination)", "setting": "[5]", "value": "eliminated unchanged via the kidneys"}]}
{"compound": "CC1=CC(=O)NS(=O)(=O)O1.COC(=O)[C@H](Cc1ccccc1)NC(=O)[C@@H](N)CC(=O)O", "note": "[Aspartame-acesulfame salt] (H-Asp-Phe-OMe)", "values": [{"measurement": "Sweetening power", "setting": "[1]; [9]", "value": 350}, {"measurement": "masking of the salty taste of the ORS solution", "setting": "[2]", "value": "salty taste was perceived to a lesser extent"}, {"measurement": "fate in the human organism (splitting, metabolism, elimination)", "setting": "[5]", "value": "split into its original components aspartame and acesulfame"}]}
{"compound": "COC(=O)[C@H](Cc1ccccc1)NC(=O)[C@@H](N)CC(=O)O", "note": "[Aspartame] (H-Asp-Phe-OMe)", "values": [{"measurement": "Sweetening power", "setting": "[1]; [9]", "value": 200}, {"measurement": "masking of the salty taste of the ORS solution", "setting": "[2]", "value": "salty taste was perceived to a lesser extent; also recorded: masking was achieved"}, {"measurement": "Highest daily dose/10 kg BW", "setting": "[3]", "value": 400, "unit": "mg"}, {"measurement": "Highest dose/sachet", "setting": "[3]", "value": 100.0, "unit": "mg"}, {"measurement": "ADI value/kg KG", "setting": "[4]", "value": 40, "unit": "mg mg/kg KG"}, {"measurement": "fate in the human organism (splitting, metabolism, elimination)", "setting": "[5]", "value": "metabolised in the body"}]}
{"compound": "OC[C@H]1O[C@@H](O[C@H]2[C@H](O)[C@@H](O)C(O)O[C@@H]2CO)[C@H](O)[C@@H](O)[C@H]1O", "note": "(stereo partly drawn) [Lactose]", "values": [{"measurement": "Sweetening power", "setting": "[1]; [10]", "value": 0.2}]}
{"compound": "OC[C@@H](O)[C@@H](O[C@H]1O[C@H](CO)[C@@H](O)[C@H](O)[C@H]1O)[C@H](O)[C@@H](O)CO", "note": "[Maltitol]", "values": [{"measurement": "Sweetening power", "setting": "[1]; [10]", "value": 0.9}, {"measurement": "masking of the salty taste of the ORS solutions", "setting": "[6]; [11]", "value": "masking of the salty taste of the ORS solutions could substantially be achieved"}, {"measurement": "masking of the salty taste of the ORS solutions", "setting": "[6]; [12]", "value": "substantially not salty, but very sour and not sweet"}]}
{"compound": "OC[C@@H](O)[C@@H](O)[C@H](O)[C@H](O)CO", "note": "[Mannitol]", "values": [{"measurement": "Sweetening power", "setting": "[1]; [10]", "value": 0.4}]}
{"compound": "COc1ccc(CCC(=O)c2c(O)cc(O[C@@H]3O[C@H](CO)[C@@H](O)[C@H](O)[C@H]3O[C@@H]3O[C@@H](C)[C@H](O)[C@@H](O)[C@H]3O)cc2O)cc1O", "note": "[Neohesperidin dihydrochalcone]", "values": [{"measurement": "Sweetening power", "setting": "[1]; [9]", "value": 1000}, {"measurement": "ADI value/kg KG", "setting": "[4]", "value": 5, "unit": "mg mg/kg KG"}]}
{"compound": "COC(=O)[C@H](Cc1ccccc1)NC(=O)[C@H](CC(=O)O)NCCC(C)(C)C", "note": "[Neotam]", "values": [{"measurement": "hydrolytic stability", "setting": "[7]", "value": "better hydrolytic stability"}, {"measurement": "Sweetening power", "setting": "[1]; relative to saccharose", "value": "about 10,000"}]}
{"compound": "O=C1NS(=O)(=O)c2ccccc21.[Na]", "note": "[Saccharin sodium]", "values": [{"measurement": "promotion of the growth of bladder carcinomas", "setting": "bladder carcinomas", "value": "suspected of promoting the growth of bladder carcinomas"}, {"measurement": "Sweetening power", "setting": "[1]; [9]", "value": 500}, {"measurement": "Highest daily dose/10 kg BW", "setting": "[3]", "value": 50, "unit": "mg"}, {"measurement": "Highest dose/sachet", "setting": "[3]", "value": 12.5, "unit": "mg"}, {"measurement": "ADI value/kg KG", "setting": "[4]", "value": 5, "unit": "mg mg/kg KG"}]}
{"compound": "OC[C@H]1O[C@@](CO)(O[C@H]2O[C@H](CO)[C@@H](O)[C@H](O)[C@H]2O)[C@@H](O)[C@@H]1O", "note": "[Saccharose]", "values": [{"measurement": "Sweetening power", "setting": "[1]; relative to saccharose", "value": "one"}, {"measurement": "Sweetening power", "setting": "[1]; [10]", "value": 1}, {"measurement": "masking of the salty taste of the ORS solutions", "setting": "[6]; [11]", "value": "masking of the salty taste of the ORS solutions could substantially be achieved"}, {"measurement": "masking of the salty taste of the ORS solutions", "setting": "[6]; [12]", "value": "No masking of taste could be achieved"}]}
{"compound": "O=S(=O)([O-])NC1CCCCC1.[Na+]", "note": "[Sodium cyclamate]", "values": [{"measurement": "Sweetening power", "setting": "[1]; [9]", "value": 30}, {"measurement": "Sweetening power", "setting": "[1]; [10]", "value": 30}, {"measurement": "masking of the salty taste of the ORS solution", "setting": "[2]", "value": "complete masking of taste; also recorded: masking was achieved"}, {"measurement": "Highest daily dose/10 kg BW", "setting": "[3]", "value": 110, "unit": "mg"}, {"measurement": "Highest dose/sachet", "setting": "[3]", "value": 27.5, "unit": "mg"}, {"measurement": "ability to mask a salty taste", "setting": "[8]", "value": "highest"}, {"measurement": "ADI value/kg KG", "setting": "[4]", "value": 11, "unit": "mg mg/kg KG"}, {"measurement": "ADI value", "setting": "[4]", "value": "11 mg per kg of bodyweight"}]}
{"compound": "OC[C@@H](O)[C@@H](O)[C@H](O)[C@@H](O)CO", "note": "[Sorbitol]", "values": [{"measurement": "Sweetening power", "setting": "[1]; [10]", "value": 0.6}]}
{"compound": "OC[C@H]1O[C@H](O[C@]2(CCl)O[C@H](CCl)[C@@H](O)[C@@H]2O)[C@H](O)[C@@H](O)[C@H]1Cl", "note": "[Sucralose]", "values": [{"measurement": "Sweetening power", "setting": "[1]; [9]", "value": 600}, {"measurement": "ADI value/kg KG", "setting": "[4]", "value": 15, "unit": "mg mg/kg KG"}]}
{"compound": "Isomalt", "values": [{"measurement": "Sweetening power", "setting": "[1]; [10]", "value": 0.45}]}
{"compound": "Thaumatin", "values": [{"measurement": "Sweetening power", "setting": "[1]; [9]", "value": 3000}, {"measurement": "masking of the salty taste of the ORS solution", "setting": "[2]", "value": "could also no longer be masked"}, {"measurement": "ADI value/kg KG", "setting": "[4]", "value": 5, "unit": "mg mg/kg KG"}]}
